Experimental data as given in ChEMBL document CHEMBL3779795, “Design and synthesis of thiourea derivatives with sulfur-containing heterocyclic scaffolds as potential tyrosinase inhibitors” (Bioorg Med Chem, 2016).

Target: T1, Tyrosinase (Agaricus bisporus, UniProt O42713)
T1 sequence (O42713 whole entry): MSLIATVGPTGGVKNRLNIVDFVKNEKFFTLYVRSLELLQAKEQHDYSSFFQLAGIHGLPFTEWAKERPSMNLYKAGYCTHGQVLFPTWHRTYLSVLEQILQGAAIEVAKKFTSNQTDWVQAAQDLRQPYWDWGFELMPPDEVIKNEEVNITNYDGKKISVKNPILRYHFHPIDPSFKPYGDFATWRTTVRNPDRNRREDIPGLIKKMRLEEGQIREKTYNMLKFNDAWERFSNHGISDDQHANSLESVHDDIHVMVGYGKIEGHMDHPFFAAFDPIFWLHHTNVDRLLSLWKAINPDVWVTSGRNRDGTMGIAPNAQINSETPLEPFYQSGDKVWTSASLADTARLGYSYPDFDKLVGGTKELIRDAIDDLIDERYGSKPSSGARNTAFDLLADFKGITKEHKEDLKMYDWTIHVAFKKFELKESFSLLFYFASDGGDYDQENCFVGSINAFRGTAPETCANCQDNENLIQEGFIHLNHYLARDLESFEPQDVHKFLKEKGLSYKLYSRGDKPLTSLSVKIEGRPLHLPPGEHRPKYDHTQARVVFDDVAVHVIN
Experiment: Inhibition of diphenolase activity of mushroom tyrosinase preincubated for 10 mins followed by addition of L-DOPA measured for 5 mins by spectrophotometry

Row | IC50 | SMILES
1 | 20.9 µM | O=C(O)CSc1nnc(NC(=S)Nc2ccc(F)cc2)s1
2 | 31.3 µM | O=C(O)CSc1nnc(NC(=S)Nc2cccc(F)c2)s1
3 | 59.7 µM | O=C(O)CSc1nnc(NC(=S)Nc2cccc(Cl)c2)s1
4 | 20.5 µM | O=C(O)CSc1nnc(NC(=S)Nc2ccc(F)c(F)c2)s1
5 | 54.4 µM | Cc1ccc(NC(=S)Nc2nnc(SCC(=O)O)s2)cc1
6 | 33.9 µM | O=C(O)CSc1nnc(NC(=S)Nc2ccc(F)c(Cl)c2)s1
7 | 26.3 µM | O=C(O)CSc1nnc(NC(=S)Nc2ccc(Cl)cc2)s1
8 | 27.7 µM | O=C(O)CSc1nnc(NC(=S)Nc2ccccc2)s1
9 | 20.1 µM | O=C(O)CSc1nnc(NC(=S)Nc2ccc(F)cc2F)s1
10 | 27.1 µM | COc1ccccc1NC(=S)Nc1nnc(SCC(=O)O)s1
11 | 6.13 µM | O=C(O)CSc1nnc(NC(=S)Nc2cccc(C(F)(F)F)c2)s1

Target: T1, Tyrosinase
Experiment: Noncompetitive inhibition of diphenolase activity of mushroom tyrosinase preincubated for 10 mins followed by addition of L-DOPA measured for 5 mins by Lineweaver-Burk plot analysis

Row | Ki | SMILES
12 | 8.13 µM | O=C(O)CSc1nnc(NC(=S)Nc2cccc(C(F)(F)F)c2)s1
